target: T1, NEDD8-activating enzyme E1 catalytic subunit (Homo sapiens, UniProt Q8TBC4); assay: Inhibition of recombinant human untagged NAEalpha/N-terminal His-tagged NAEbeta expressed in Bac-to-Bac expression system using FLAG-tagged NEDD8 as substrate after 90 mins in presence of GST-tagged Ubc12 by HTRF assay
T1 sequence (Q8TBC4 whole entry): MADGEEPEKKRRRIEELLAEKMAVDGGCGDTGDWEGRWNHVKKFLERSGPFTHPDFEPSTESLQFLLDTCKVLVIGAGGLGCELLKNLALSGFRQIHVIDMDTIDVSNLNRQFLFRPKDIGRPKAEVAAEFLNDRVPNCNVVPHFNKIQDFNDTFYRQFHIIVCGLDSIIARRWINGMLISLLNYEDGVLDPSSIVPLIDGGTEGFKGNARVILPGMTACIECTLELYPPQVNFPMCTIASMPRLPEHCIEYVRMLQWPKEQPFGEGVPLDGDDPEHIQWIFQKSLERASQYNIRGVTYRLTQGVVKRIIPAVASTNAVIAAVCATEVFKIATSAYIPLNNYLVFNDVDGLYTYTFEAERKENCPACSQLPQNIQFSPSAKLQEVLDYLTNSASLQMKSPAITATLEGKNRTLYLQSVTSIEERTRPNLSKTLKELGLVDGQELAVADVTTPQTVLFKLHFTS

| Structure (SMILES) | IC50 [nM] |
| --- | --- |
| NS(=O)(=O)OC[C@H]1O[C@@H](n2cnc3c(NCC4CCNCC4)ncnc32)[C@H](O)[C@@H]1O | 100 to 1000 |
| COc1ccccc1C#Cc1ncnc2c1ncn2[C@@H]1O[C@H](COS(N)(=O)=O)[C@@H](O)[C@H]1O | 100 to 1000 |
| NS(=O)(=O)OC[C@H]1O[C@@H](n2cnc3c(NC(=O)Nc4ccccc4)ncnc32)[C@H](O)[C@@H]1O | 100 to 1000 |
| NS(=O)(=O)OC[C@H]1O[C@@H](n2cnc3c(C#CC4CC4)ncnc32)[C@H](O)[C@@H]1O | 100 to 1000 |
| NS(=O)(=O)OC[C@H]1O[C@@H](n2cnc3c(N[C@H]4CCc5ccccc54)ncnc32)[C@H](O)[C@@H]1O | 100 to 1000 |
| NS(=O)(=O)CC[C@H]1O[C@@H](n2cnc3c(N[C@H]4CCc5ccccc54)ncnc32)[C@H](O)[C@@H]1O | 100 to 1000 |
| NS(=O)(=O)NC[C@H]1O[C@@H](n2cnc3c(C#Cc4ccccc4)ncnc32)[C@H](O)[C@@H]1O | 100 to 1000 |
| NS(=O)(=O)OC[C@H]1C[C@@H](n2cnc3c(N[C@H]4CCc5ccccc54)ncnc32)C[C@@H]1O | 100 to 1000 |
| COc1ncnc2c1ccn2[C@H]1C[C@H](O)[C@@H](COS(N)(=O)=O)O1 | ≤ 1000 |
| NS(=O)(=O)OC[C@H]1O[C@@H](n2cnc3c(CC4Cc5ccccc5C4)ncnc32)[C@H](O)[C@@H]1O | 100 to 1000 |
| NS(=O)(=O)OC[C@H]1O[C@@H](n2cnc3c(C#Cc4ccccc4)ncnc32)[C@H](O)[C@@H]1O | 100 to 1000 |
| NS(=O)(=O)OC[C@H]1O[C@@H](n2cnc3c(NCc4ccc(Cl)cc4)ncnc32)[C@H](O)[C@@H]1O | 100 to 1000 |
| NS(=O)(=O)OC[C@H]1C[C@@H](n2cnc3c(C#Cc4ccccc4)ncnc32)[C@H](O)[C@@H]1O | 100 to 1000 |
| NS(=O)(=O)NC[C@H]1O[C@@H](n2cnc3c(N[C@@H]4CCc5ccccc54)ncnc32)[C@H](O)[C@@H]1O | 100 to 1000 |
| NS(=O)(=O)OC[C@H]1O[C@@H](n2cnc3c(N[C@H](CO)c4ccccc4)ncnc32)[C@H](O)[C@@H]1O | 100 to 1000 |
| NS(=O)(=O)OC[C@H]1O[C@@H](n2ccc3cncnc32)C[C@@H]1O | 100 to 1000 |
| NS(=O)(=O)OC[C@H]1O[C@@H](n2cnc3c(CN4C(=O)c5ccccc5C4=O)ncnc32)[C@H](O)[C@@H]1O | 100 to 1000 |
| NS(=O)(=O)NC[C@H]1O[C@@H](n2cnc3c(NCc4cccs4)ncnc32)[C@H](O)[C@@H]1O | 100 to 1000 |
| NS(=O)(=O)OC[C@H]1O[C@@H](n2cnc3c(N[C@H]4CCc5ccccc54)ncnc32)[C@@H](F)[C@@H]1O | 100 to 1000 |
| NS(=O)(=O)OC[C@H]1O[C@@H](n2cnc3c(Cc4ccc(F)cc4)ncnc32)[C@H](O)[C@@H]1O | ≤ 1000 |
| NS(=O)(=O)NC[C@H]1O[C@@H](n2cnc3c(NCCOc4ccccc4)ncnc32)[C@H](O)[C@@H]1O | ≤ 1000 |
| NS(=O)(=O)OC[C@H]1O[C@@H](n2cnc3c(N[C@H]4CCc5ccccc54)nncc32)[C@H](O)[C@@H]1O | 100 to 1000 |
| COc1ccc(C#Cc2ncnc3c2ncn3[C@@H]2O[C@H](COS(N)(=O)=O)[C@@H](O)[C@H]2O)cc1 | 100 to 1000 |

| Structure (SMILES) | IC50 [nM] |
| --- | --- |
| NS(=O)(=O)NC[C@H]1O[C@@H](n2cnc3c(N[C@H]4CCc5ccccc54)ncnc32)[C@H](O)[C@@H]1O | 100 to 1000 |
| Cc1ncnc2c1ncn2[C@@H]1O[C@H](COS(N)(=O)=O)[C@@H](O)[C@H]1O | 100 to 1000 |
| NS(=O)(=O)OC[C@H]1O[C@@H](n2cnc3c(C#Cc4cccc(C(F)(F)F)c4)ncnc32)[C@H](O)[C@@H]1O | 100 to 1000 |
| CO[C@H]1[C@H](O)[C@@H](COS(N)(=O)=O)O[C@H]1n1cnc2c(N[C@H]3CCc4ccccc43)ncnc21 | 100 to 1000 |
| NS(=O)(=O)OC[C@H]1O[C@@H](n2cnc3c(N[C@H]4CCc5ccccc54)nccc32)[C@H](O)[C@@H]1O | 100 to 1000 |
| NS(=O)(=O)OC[C@H]1O[C@@H](n2cnc3c(NC(=O)c4ccc(F)cc4)ncnc32)[C@H](O)[C@@H]1O | 100 to 1000 |
| NS(=O)(=O)OC[C@H]1O[C@@H](n2cnc3c(NCCc4ccccc4)ncnc32)[C@H](O)[C@@H]1O | 100 to 1000 |
| NS(=O)(=O)OC[C@H]1O[C@@H](n2cnc3c(NC(=O)c4ccc(Cl)cc4)ncnc32)[C@H](O)[C@@H]1O | 100 to 1000 |
| CC(=O)NCc1ccccc1CNc1ncnc2c1ncn2[C@@H]1O[C@H](COS(N)(=O)=O)[C@@H](O)[C@H]1O | 100 to 1000 |
| NS(=O)(=O)OC[C@H]1C[C@@H](n2cnc3c(N[C@H]4CCc5ccccc54)ncnc32)[C@H](O)[C@@H]1O | 100 to 1000 |
| CCCc1ncnc2c1ncn2[C@@H]1C[C@H](COS(N)(=O)=O)[C@@H](O)[C@H]1O | 100 to 1000 |
| NS(=O)(=O)OC[C@H]1C[C@@H](n2cnc3c(CCc4ccccc4)ncnc32)[C@H](O)[C@@H]1O | 100 to 1000 |
| NS(=O)(=O)OC[C@H]1O[C@@H](n2cnc3c(NCc4ccccc4)ncnc32)[C@H](O)[C@@H]1O | 100 to 1000 |
| Cc1cnc(CNc2ncnc3c2ncn3[C@@H]2O[C@H](CNS(N)(=O)=O)[C@@H](O)[C@H]2O)cn1 | ≤ 1000 |
| NS(=O)(=O)NC[C@H]1O[C@@H](n2cnc3c(NCc4cccc5ccccc45)ncnc32)[C@H](O)[C@@H]1O | 100 to 1000 |
| NS(=O)(=O)NC[C@H]1O[C@@H](n2cnc3c(NCc4csc5ccccc45)ncnc32)[C@H](O)[C@@H]1O | ≤ 1000 |
| NS(=O)(=O)OC[C@H]1O[C@@H](n2cnc3c(C4CC4)ncnc32)[C@H](O)[C@@H]1O | 100 to 1000 |
| COc1ccccc1C(=O)NCc1ncnc2c1ncn2[C@@H]1O[C@H](COS(N)(=O)=O)[C@@H](O)[C@H]1O | 100 to 1000 |
| NS(=O)(=O)CC[C@H]1O[C@@H](n2cnc3c(NC(c4ccccc4)c4ccccc4)ncnc32)[C@H](O)[C@@H]1O | 100 to 1000 |
| NS(=O)(=O)OC[C@H]1O[C@@H](n2cnc3c(C#Cc4cccc(F)c4)ncnc32)[C@H](O)[C@@H]1O | 100 to 1000 |
| NS(=O)(=O)CC[C@H]1O[C@@H](n2cnc3c(NCc4ccc(Cl)cc4)ncnc32)[C@H](O)[C@@H]1O | 100 to 1000 |
| COc1ccccc1CNc1ncnc2c1ncn2[C@@H]1O[C@H](COS(N)(=O)=O)[C@@H](O)[C@H]1O | 100 to 1000 |

Reference: ChEMBL document CHEMBL3880402, “Inhibitors of E1 activating enzymes” (2006)
